Reference: patent publication US12433867B2, “Pharmaceutical composition comprising FLT3 inhibitor and hypomethylating agent for treating acute myeloid leukemia” (HANMI PHARM. CO., LTD, priority 2019, dated 2025)

Assays:
[1] = system: MOLM-13 (DSMZ no. ACC 554) cell line; test: MOLM-13 cell growth inhibition (CellTiter-Glo), Compound A alone or combined with azacitidine; format: cell-based
Method: By examining growth inhibition of an MOLM-13 (DSMZ no. ACC 554) cell line which was treated with, in combination, an FLT3 inhibitor, 5-chloro-N-(3-cyclopropyl-5-(((3R,5S)-3,5-dimethylpiperazin-1-yl)methyl)phenyl)-4-(6-methyl-1H-indol-3-yl)pyrimidin-2-amine (hereinafter, Compound A) and a hypomethylating agent (HMA), 4-amino-1-β-D-ribofuranosyl-1,3,5-triazin-2(1H)-one (hereinafter, azacitidine), an effect of combined treatment of the two drugs was tested. The MOLM-13 cell line cultured in an RPMI 1640 culture medium (RPMI=Rosewell Parker Memory Institute) supplemented with 20% FBS was inoculated at a density of 2×10^4 cells per well in a 96-well plate, and Compound A was subjected to ½ serial dilution at predetermined concentrations (e.g., 10 nM to 0.078 nM) using the same culture medium. […] To measure cell viability, a CellTiter-Glo® (CTG) assay was performed, and for result analysis, 50% cell growth inhibition (GI50) was calculated using a GraphPad Prism software.

MOLM-13-Luc2 cell line = test: Mouse model xenografted with MOLM-13-Luc2 cell line, survival; format: in vivo; details: NOG mouse, MOLM-13-Luc2 i.v.; Compound A 10 mg/kg/day oral once a day; azacitidine 3 mg/kg/day i.p. twice a week
Method: A comparison of Compound A and azacitidine or an efficacy test of combination thereof was conducted in a mouse model xenografted with a MOLM-13-Luc2 cell line which is a MOLM-13 cell line genetically modified to express luciferase.
The MOLM-13-Luc2 cell line was injected to a tail vein of NOG mouse at 5×10^6 cells/0.1 mL/mouse, and allowed to grow.
Bioluminescence images of MOLM-13-Luc2 cells were measured using a Lumina III IVIS imaging system (PerkinElmer) and quantified using a Living image software (PerkinElmer). When measured, D-luciferin (D-luciferin) was intraperitoneally injected to mice, and imaging was were performed under anesthesia using isoflurane. Images were measured for a first group separation during the experiment, and then measured on a specific day according to the purpose of the test.
A control group orally received a DMSO/PEG400/DW (ratio=0.5/2/7.5, v/v) mixed solution once a day, and a Compound A group was orally administered once a day at a dose of 10 mg/kg/day. An azacitidine group which is a hypomethylating agent (HMA) group was intraperitoneally administered at a dose of 3 mg/kg/day twice a week (on day 1 and day 4 of the week). A combination group was orally administered with Compound A at a dose of 10 mg/kg/day once a day, and azacitidine was intraperitoneally administered at a dose of 3 mg/kg/day twice a week (on day 1 and day 4 every week). Each group received individual drugs until all subjects in each group died.
The Y-axis represents a percentage (%) of surviving mice (survival rate) in each experimental group, and the X-axis represents the number of days of administration.

[2] = system: Ba/F3 cells expressed in an FLT3 ITD/D835Y xenografted mouse model; test: In vivo study, Ba/F3 FLT3 ITD/D835Y xenografted mouse model
[3] = system: Ba/F3 cells expressed in an FLT3 ITD/F691L xenografted mouse model; test: In vivo study, Ba/F3 FLT3 ITD/F691L xenografted mouse model

SMILES | GI40 (concentration inhibiting MOLM-13 cell growth by about 40%) ([1]; MOLM-13 cells) [nM] | median survival period (MOLM-13-Luc2 cell line) [days] | overall survival period (MOLM-13-Luc2 cell line) [days] | GI50 ([1]; Homo sapiens, 72 h, MOLM-13, incubation 3 days, CTG assay, combination with azacitidine at 800 nM, GI50 as Compound A concentration) [nM] | therapeutic effect / overcoming resistance caused by FLT3 mutations [2] | therapeutic effect / overcoming resistance caused by FLT3 mutations [3]
Nc1ncn([C@@H]2O[C@H](CO)[C@@H](O)[C@H]2O)c(=O)n1 [Azacitidine, 4-amino-1-β-D-ribofuranosyl-1,3,5-triazin-2(1H)-one, reference compound] | 800 | 16 | 18 |  |  | 
Cc1ccc2c(-c3nc(Nc4cc(CN5C[C@@H](C)N[C@@H](C)C5)cc(C5CC5)c4)ncc3Cl)c[nH]c2c1 [Compound A, 5-chloro-N-(3-cyclopropyl-5-(((3R,5S)-3,5-dimethylpiperazin-1-yl)methyl)phenyl)-4-(6-methyl-1H-indol-3-yl)pyrimidin-2-amine] |  | 17 | 20 | 2.5 | shows therapeutic effects | shows therapeutic effects
